Data as given in patent publication US20130079345A1, “[…] ACTIVE DISUBSTITUTED TRIAZINE DERIVATIVES” (BAYER INTELLECTUAL PROPERTY GMBH, priority 2010, published 2013).
Structures can show the parent of a compound that is named as a salt.

Legend:
CDK4/CyclinD1 = target: T1, CDK4/CyclinD1 (Homo sapiens, UniProt P11802); experiment: Lance Ultra KinaSelect Assay, CDK4; assay type: biochemical; details: ATP 90 μM, read-out: Inhibition (IC50) CDK4
T1 construct: purchased Invitrogen
Description: (§1) This protocol describes how the Lance Ultra KinaSelect Assay was performed to determine half maximal inhibitory concentration (IC50) of compounds of general formula (I) and CDK/Cyclin complexes. The principle behind this enzymatic assay is based upon the phosphorylation of the ULight-Peptide Substrat. It is detected by using a specific EU-labeled anti-phospho peptide antibody. The binding of the Eu-labeled anti-phospho peptide antibody to the phosphorylated U Light labeled peptide gives rise to a FRET-signal. Binding of an inhibitor to the kinase prevents phosphorylation of the ULight-MBP Substrat, resulting in a loss of FRET.
(§2) The compounds of general formula (I) summarized in Table 5 were diluted from a 10 mM DMSO stock solution 1:10 in a total volume of 15 μL DMSO. This compound predilution was then serial diluted 1:3 over 8 steps in DMSO and briefly spun down. Each compound solution was now diluted 1:20 in Enzymatic Buffer (HEPES: 50 mM, pH: 7.5; MgCl2: 10 mM; EGTA: 1 mM; DTT: 2 mM; Tween-20: 0.01%), mixed thoroughly and spun down. For every sample, 2 μL of the diluted compound were mixed with 6 μL CDK/Cyclin/Substrat solution and […] in a well of a small volume 384 well plate (Corning Incorporated, Corning, N.Y., USA; order no. 3673). […] For positive controls, in each well 2 μL of DMSO solution (1% final DMSO assay concentration) was mixed with 6 μL CDK/Cyclin/Substrat (appropriate final concentration see Table 3) and 2 μL Tracer ATP solution (appropriate final concentration see Table 3). Positive and negative controls were calculated from at least 8 different sample wells. The 384 well plates were mixed in a Teleshaker plate mixer (Beckman Coulter, Brea, Calif., USA) at 2000 rpm for 40 sec, and incubated for 1 h at room temperature. Before reading, 10 μL detection buffer (Lance Detection Buffer 1×; EDTA: […]; Eu-Anti-P-MBP: see Table 3) was added. The FRET signal was measured at 340 nm excitation, 665 nm and 615 nm emission (for the kinase tracer and LanthaScreen Eu-AB, respectively) with an Envision spectrophotometer (Perkin Elmer, Waltham, Mass., USA) with 50 μs delay and 300 μs integration time. IC50 values were determined from the sigmoidal dose response curves with the software Quattro Workflow (Quattro GmbH, Munich, Germany).

CDK7/CyclinH/Mat1 = target: T2, CDK7/CyclinH/Mat1 (Homo sapiens, UniProt P50613); experiment: Lance Ultra KinaSelect Assay, CDK7; assay type: biochemical; details: ATP 25 μM, read-out: Inhibition (IC50) CDK7
T2 construct: purchased Carna Biosciences
Description: as §1, §2

CDK2/CyclinA = target: T3, CDK2/CyclinA (Homo sapiens, UniProt P24941); experiment: LanthaScreen Eu Kinase Binding Assay, CDK2; details: tracer 236, read-out: Affinity (Kd) CDK2
T3 construct: purchased Proqinase
Method in brief: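 TR-FRET competition binding with Alexa Fluor 647 tracer and Eu-anti-GST antibody; e.g. CDK2/Cyclin A 15 nM with tracer 236 60 nM (working solutions). Kinase buffer: HEPES 20 mM pH 8.0, MgCl2 10 mM, DTT 1 mM, Brij-35 0.01%; 8-point 1:3 series, 1 h at room temperature; Kd from sigmoidal dose-response curves.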

CDK9 = target: T4, CDK9 (Homo sapiens, UniProt P50750); experiment: Lance Ultra KinaSelect Assay, CDK9; assay type: biochemical; details: read-out: Inhibition (IC50) CDK9
T4 construct: purchased Invitrogen
Description: as §1, §2

T1 sequence (P11802 whole entry): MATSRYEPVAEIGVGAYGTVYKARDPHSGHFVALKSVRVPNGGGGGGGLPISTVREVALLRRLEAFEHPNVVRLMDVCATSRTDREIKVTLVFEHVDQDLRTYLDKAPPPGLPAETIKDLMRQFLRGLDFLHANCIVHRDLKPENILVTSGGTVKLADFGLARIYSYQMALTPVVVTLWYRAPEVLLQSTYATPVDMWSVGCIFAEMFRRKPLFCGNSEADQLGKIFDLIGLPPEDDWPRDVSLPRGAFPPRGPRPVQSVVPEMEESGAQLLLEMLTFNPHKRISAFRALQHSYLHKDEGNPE
T1 sequence (P24385 whole entry partner): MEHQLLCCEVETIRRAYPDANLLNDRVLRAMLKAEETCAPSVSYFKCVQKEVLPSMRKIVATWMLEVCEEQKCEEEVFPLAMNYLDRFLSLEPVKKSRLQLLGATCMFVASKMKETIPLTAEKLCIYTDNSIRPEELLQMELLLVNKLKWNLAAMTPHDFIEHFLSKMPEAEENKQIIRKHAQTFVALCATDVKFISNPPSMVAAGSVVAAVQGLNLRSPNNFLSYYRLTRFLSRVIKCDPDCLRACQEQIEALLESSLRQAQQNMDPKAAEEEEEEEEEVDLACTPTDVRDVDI
T2 sequence (P50613 whole entry): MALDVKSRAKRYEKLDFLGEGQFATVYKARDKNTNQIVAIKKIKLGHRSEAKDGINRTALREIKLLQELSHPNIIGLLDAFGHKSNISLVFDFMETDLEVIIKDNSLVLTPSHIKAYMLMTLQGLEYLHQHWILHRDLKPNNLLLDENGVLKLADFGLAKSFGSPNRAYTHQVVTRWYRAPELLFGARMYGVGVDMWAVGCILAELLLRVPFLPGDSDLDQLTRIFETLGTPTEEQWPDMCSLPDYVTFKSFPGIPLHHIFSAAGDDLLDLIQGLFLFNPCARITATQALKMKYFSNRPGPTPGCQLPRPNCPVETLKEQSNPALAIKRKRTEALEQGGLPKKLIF
T2 sequence (P51946 whole entry partner): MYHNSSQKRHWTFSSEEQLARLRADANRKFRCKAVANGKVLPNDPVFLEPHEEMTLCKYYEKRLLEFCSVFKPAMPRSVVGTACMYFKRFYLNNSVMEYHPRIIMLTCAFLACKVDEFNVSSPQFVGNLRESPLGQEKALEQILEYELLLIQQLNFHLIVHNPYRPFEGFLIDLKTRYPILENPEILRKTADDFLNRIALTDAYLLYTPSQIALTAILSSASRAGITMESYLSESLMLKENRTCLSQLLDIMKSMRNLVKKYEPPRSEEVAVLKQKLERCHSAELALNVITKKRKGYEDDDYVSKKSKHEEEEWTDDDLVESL
T2 sequence (P51948 whole entry partner): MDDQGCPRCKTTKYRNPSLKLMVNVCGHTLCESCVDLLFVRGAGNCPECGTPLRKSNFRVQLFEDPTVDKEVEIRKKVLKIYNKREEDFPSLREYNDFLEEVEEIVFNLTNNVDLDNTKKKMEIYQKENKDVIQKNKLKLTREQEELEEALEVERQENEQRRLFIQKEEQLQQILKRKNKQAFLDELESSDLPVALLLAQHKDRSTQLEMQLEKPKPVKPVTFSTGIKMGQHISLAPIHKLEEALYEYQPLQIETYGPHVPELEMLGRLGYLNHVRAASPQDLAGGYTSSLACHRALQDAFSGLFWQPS
T4 sequence (P50750 whole entry): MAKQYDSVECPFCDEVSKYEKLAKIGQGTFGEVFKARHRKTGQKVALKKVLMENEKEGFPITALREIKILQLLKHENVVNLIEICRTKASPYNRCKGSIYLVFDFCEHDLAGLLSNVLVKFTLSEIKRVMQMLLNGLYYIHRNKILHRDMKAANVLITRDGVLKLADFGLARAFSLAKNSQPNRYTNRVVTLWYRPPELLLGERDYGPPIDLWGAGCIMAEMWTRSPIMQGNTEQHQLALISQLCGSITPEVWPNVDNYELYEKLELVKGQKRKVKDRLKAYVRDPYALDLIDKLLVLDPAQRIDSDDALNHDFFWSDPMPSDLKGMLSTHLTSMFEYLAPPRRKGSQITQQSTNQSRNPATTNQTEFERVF

| Compound | IC50 (CDK4/CyclinD1) | IC50 (CDK7/CyclinH/Mat1) | Kd (CDK2/CyclinA) | IC50 (CDK9) |
| --- | --- | --- | --- | --- |
| COc1ccccc1-c1ncnc(Nc2cccc(CS(N)(=O)=O)c2)n1 [B1′, 3-[(4-(2-Methoxyphenyl)-1,3,5-triazin-2-yl)amino]benzenemethanesulfonamide trifluoroacetic acid salt] | > 10 µM | > 10 µM | 798 nM | 96.5 nM |
| COc1cc(F)ccc1-c1ncnc(Nc2cccc(CS(N)(=O)=O)c2)n1 [B2′, 1-(3-{[4-(4-fluoro-2-methoxyphenyl)-1,3,5-triazin-2-yl]amino}phenyl)methanesulfonamide hydrochloride] | – | – | 207 nM | 10.4 nM |
| COc1cc(F)ccc1-c1ncnc(Nc2cccc(CS(N)(=O)=O)c2)n1 [B2″, 1-(3-{[4-(4-fluoro-2-methoxyphenyl)-1,3,5-triazin-2-yl]amino}phenyl)methanesulfonamide trifluoroacetic acid salt] | 3.21 µM | > 10 µM | – | 11.6 nM |
| NS(=O)(=O)Cc1cccc(Nc2ncnc(-c3ccccc3OCc3ccccc3)n2)c1 [B13′, 3-[(4-(2-Benzyloxyphenyl)-1,3,5-triazin-2-yl)amino]benzenemethanesulfonamide trifluoroacetic acid salt] | 0.681 µM | > 10 µM | 88 nM | 5.7 nM |
| COc1ccccc1-c1ncnc(Nc2cccc(S(N)(=O)=O)c2)n1 [C1′, 3-[(4-(2-Methoxyphenyl)-1,3,5-triazin-2-yl)amino]benzenesulfonamide trifluoroacetic acid salt] | 1.51 µM | > 10 µM | 220 nM | 20.7 nM |
| COc1cc(F)ccc1-c1ncnc(Nc2cccc(CS(N)(=O)=O)c2)n1 [Compound B2, 3-[(4-(4-Fluoro-2-methoxyphenyl)-1,3,5-triazin-2-yl)amino]benzenemethanesulfonamide] | – | – | – | 10.6 nM |
| COc1ccc(F)cc1-c1ncnc(Nc2cccc(CS(N)(=O)=O)c2)n1 [Compound B3, 3-[(4-(5-Fluoro-2-methoxyphenyl)-1,3,5-triazin-2-yl)amino]benzenemethanesulfonamide] | – | – | 375 nM | – |
| COc1cccc(F)c1-c1ncnc(Nc2cccc(CS(N)(=O)=O)c2)n1 [Compound B4, 3-[(4-(6-Fluoro-2-methoxyphenyl)-1,3,5-triazin-2-yl)amino]benzenemethanesulfonamide] | > 10 µM | > 10 µM | 704 nM | 201 nM |
| COc1cc(Cl)ccc1-c1ncnc(Nc2cccc(CS(N)(=O)=O)c2)n1 [Compound B6, 3-[(4-(4-Chloro-2-methoxyphenyl)-1,3,5-triazin-2-yl)amino]benzenemethanesulfonamide] | > 10 µM | > 10 µM | – | 16.2 nM |
| CCOc1ccccc1-c1ncnc(Nc2cccc(CS(N)(=O)=O)c2)n1 [Compound B12, 3-[(4-(2-Ethoxyphenyl)-1,3,5-triazin-2-yl)amino]benzenemethanesulfonamide] | > 10 µM | > 10 µM | 2350 nM | 102 nM |
| NS(=O)(=O)Cc1cccc(Nc2ncnc(-c3ccccc3OCc3ccccc3)n2)c1 [Compound B13, 3-[(4-(2-Benzyloxyphenyl)-1,3,5-triazin-2-yl)amino]benzenemethanesulfonamide] | – | – | 687 nM | – |
| NS(=O)(=O)Cc1cccc(Nc2ncnc(-c3ccccc3Oc3ccccc3)n2)c1 [Compound B14, 1-(3-{[4-(2-phenoxyphenyl)-1,3,5-triazin-2-yl]amino}phenyl)methanesulfonamide] | – | – | 3450 nM | 9 nM |
| NS(=O)(=O)Cc1cccc(Nc2ncnc(-c3ccccc3OCc3ccncc3)n2)c1 [Compound B16, 3-[(4-(2-((4-Pyridinyl)methoxy)phenyl)-1,3,5-triazin-2-yl)amino]benzenemethanesulfonamide] | > 10 µM | > 10 µM | 1690 nM | 9 nM |

Further lines, results first:

| IC50 (CDK4/CyclinD1) | IC50 (CDK7/CyclinH/Mat1) | Kd (CDK2/CyclinA) | IC50 (CDK9) | Compound |
| --- | --- | --- | --- | --- |
| 9.32 µM | > 10 µM | 310 nM | 139 nM | COc1ccccc1-c1ncnc(Nc2cccc(CCS(N)(=O)=O)c2)n1 [Compound D1, 2-[3-((4-(2-Methoxyphenyl)-1,3,5-triazin-2-yl)amino)phenyl]ethanesulfonamide] |
| > 10 µM | > 10 µM | < 5 nM | 12.8 nM | COc1cc(F)ccc1-c1ncnc(Nc2cccc(CCS(N)(=O)=O)c2)n1 [Compound D2, 2-[3-((4-(4-Fluoro-2-methoxyphenyl)-1,3,5-triazin-2-yl)amino)phenyl]ethanesulfonamide] |
| – | – | 68 nM | 194 nM | COc1ccccc1-c1ncnc(Nc2cccc([N+](=O)[O-])c2)n1 [Compound H1, 4-(2-Methoxyphenyl)-N-(3-nitrophenyl)-1,3,5-triazine-2-amine] |
| > 10 µM | > 10 µM | 283 nM | 72 nM | COc1ccccc1-c1ncnc(Nc2cccc(NS(C)(=O)=O)c2)n1 [Compound K1, N-[3-((4-(2-Methoxyphenyl)-1,3,5-triazin-2-yl)amino)phenyl]-methanesulfonamide] |
| > 10 µM | > 10 µM | – | 111 nM | CCCS(=O)(=O)Nc1cccc(Nc2ncnc(-c3ccccc3OC)n2)c1 [Compound L1, N-[3-((4-(2-Methoxyphenyl)-1,3,5-triazin-2-yl)amino)phenyl]-propanesulfonamide] |
| – | – | 709 nM | 937 nM | COc1ccccc1-c1ncnc(Nc2ccccc2)n1 [Compound P1, 4-(2-Methoxyphenyl)-N-phenyl-1,3,5-triazine-2-amine] |
